Measurements reported in US10835500B2, “Medicament for accelerated wound healing” (Symrise AG, priority 2014, dated 2020).
Entries after “also recorded” stand apart in the source; their conditions may differ.

How the values were obtained:
Type in all cases: cell-based, human
[1] = system: primary keratinocytes; assay: Calcium imaging in primary keratinocytes; settings: primary keratinocytes; for calcium signals on repeated stimulation: repeated application (500 μM in FIG. 9)
Source text: The Sandalore®-induced signal cascade in HaCaT cells and primary keratinocytes was pharmacologically characterized using the calcium imaging technique and specific blockers of signal cascade proteins. An investigation was first conducted in order to determine whether the calcium signals are caused by calcium inflow from the extracellular space. For this purpose, a calcium-free extracellular solution was used with a calcium chelator (EGTA) added. […] In order to investigate the role of adenylyl cyclase, the specific blockers SQ-22536 and MDL-12330A were used. […] The efficacy of the blockers was tested in this case with histamine, which activated the PLC signalling pathway (FIG. 11c).
Effect of the OR2AT4 ligand Sandalore® on intracellular calcium concentration of cultivated keratinocytes. […] 100 μM of ATP was used at the end of each measurement as a positive control stimulus. Right: Quantitative evaluation of calcium signals in 4-time application of Sandalore® (500 μM). Shown are the mean values of the individual applications including standard error. Mann-Whitney U test. *: p<0.05. C) and D): dose-dependent activation of HaCaT cells in calcium imaging experiments. Shown are the mean amplitudes including standard error at various concentrations in the first (C) and fourth (D) Sandalore® application. Number of cells measured: 0.0125 mM (39), 0.025 mM (30), 0.1 mM (46), 0.5 mM (34), 1 mM (63), 2 mM (41), 10 mM (36).
A) Representative calcium imaging traces of HaCaT cells (left) and primary keratinocytes (right) incubated with the gap junction blocker 1-octanol (500 μM) and then repeatedly stimulated with Sandalore® (500 μM, horizontal bars) (blue trace). […] 100 μM of ATP was used at the end of each measurement as a positive control stimulus. Quantitative evaluation of HaCaT cells (B) and primary keratinocytes (C) incubated with the gap junction blockers 1-octanol (500 μM) or carbenoxolone (10 μM) and then repeatedly stimulated with Sandalore® (500 μM) or Lyral (1 mM) in calcium imaging experiments. Shown are the mean values of the individual applications including standard error relative to the control measurements (Sandalore® application without blocker). Mann-Whitney U test. Number of cells measured: Sandalore®+1-octanol (HaCaT (110), keratinocytes (26)); Sandalore®+carbenoxolone: HaCaT (74); Lyral+carbenoxolone: HaCaT (43). ***: p<0.001.
Pharmacological characterization of Sandalore®-induced signal cascade in human keratinocytes. A)-D). Shown are representative calcium imaging traces of primary keratinocytes in the presence of a blocker (blue). The horizontal bars correspond to the application times. 100 μM of ATP was used at the end of each measurement as a positive control stimulus. A) Measurement with calcium-free extracellular solution (+10 mM EGTA). B) Measurement with the adenylyl cyclase blocker SQ-22536 (100 μM). C) Use of the phospholipase-C blocker U-73122 (10 μM). 100 μM of histamine was taken as a positive control. D) Measurement with the CNG channel blocker L-cis-diltiazem (150 μM). E) Overview of pharmacological measurement of HaCaT cells and primary keratinocytes (Kera). The mean amplitudes relative to the control measurements (dashed line) are indicated. MDL-12330A (40 μM). EGTA: calcium-free Ringer (HaCaT n=46, Kera n=52), SQ: SQ-22536 (HaCaT n=60, Kera n=26), MDL: MDL-12330A (HaCaT n=69, Kera n=24), U-73122 (HaCaT n=41, Kera n=25), L-cis-D.: L-cis-diltiazem (HaCaT n=41, Kera n=25). Mann-Whitney U test. ***: p<0.001. F) Determination of the cAMP contents of HaCaT cells after stimulation with Sandalore® by means of cAMP-Glo™ assays. The dots show the mean cAMP content including standard error after 10-minute Sandalore® stimulation (1 μM-10,000 μM). Significance was determined between HaCaT cells stimulated with Sandalore® and stimulated with an equivalent volume of DMSO (0.2%). Kruskal-Wallis Test with multiple comparison; n=3 experiments. *: p<0.05.

[2] = system: IL-1α; assay: Quantitative real-time PCR of IL-1α in HaCaT cells
Method: (§1) In order to investigate interleukin secretion, quantitative real-time PCR was first carried out. For this purpose, RNA from HaCaT cells was used that had previously been stimulated for 6 or 24 hours with Sandalore®. Detection was carried out with specific primers of various interleukins (IL-1α, IL-1β, IL-6, IL-8) and tumor necrosis factor (TNF▪). […] In order to corroborate the results, an ELISA assay was carried out, in which the secreted interleukins in the supernatant of the cells can be detected by means of an immunological reaction. By means of the assay used, secretion of the interleukins (IL-1α, IL-1β, IL-2, IL-4, IL-6, IL-8, IL-10, IL-12, and IL-17α), TNFα, γ-interferon (IFNγ), and granulocyte macrophage colony-stimulating factor (GMCSF) was investigated.
(§2) Investigation of interleukin secretion and phosphorylation of Akt protein kinase after Sandalore® stimulation. A) Investigation of the regulation of interleukins in HaCaT cells by means of qRT-PCR after stimulation with Sandalore® (500 μM) for 6 h and 24 h. 0.1% DMSO was used as a control. GAPDH was used as a reference gene, and the relative expression between untreated and stimulated cells was determined. Mean values including standard error. n=3 experiments. […] The measured optical density of the treated cells at 450 nm was expressed relative to the background. […]

[3] = system: IL-6, IL-8, tumor necrosis factor; assay: Quantitative real-time PCR of the other interleukins in HaCaT cells; settings: 6 or 24 hours, 500 μM
Method: as §1, §2

[4] = system: protein kinase Akt; assay: Western Blot, phosphorylation of protein kinase Akt in HaCaT cells
Method: In addition to the phosphorylated kinases already detected, the phosphorylation of protein kinase Akt was investigated. For this purpose, HaCaT cells were stimulated with Sandalore® for 0, 5, 15 and 30 min, and phosphorylation was investigated by means of Western Blot assays and special antibodies to the unphosphorylated or phosphorylated form of the Akt-protein.
Investigation of interleukin secretion and phosphorylation of Akt protein kinase after Sandalore® stimulation. A) Investigation of the regulation of interleukins in HaCaT cells by means of qRT-PCR after stimulation with Sandalore® (500 μM) for 6 h and 24 h. 0.1% DMSO was used as a control. GAPDH was used as a reference gene, and the relative expression between untreated and stimulated cells was determined. Mean values including standard error. n=3 experiments. B) ELISA assay for the detection of interleukins in the supernatant of HaCaT cells stimulated for 24 h with Sandalore® (500 μM). 0.1% DMSO was used as a control. The measured optical density of the treated cells at 450 nm was expressed relative to the background. Supernatants of three independent stimulations were used. Mean values including standard error. Mann-Whitney U test. *: p<0.05. C) Western Blot for investigating phosphorylation of Akt protein kinase by HaCaT cells stimulated for 0, 5, 15, and 30 min with Sandalore® (500 μM). […]

SMILES: CC1=CCC(CCC(C)CO)C1(C)C (stereo not drawn) [Brahmanol®]
- calcium signals on repeated stimulation [1]: significant sensitization

SMILES: CC1=CCC(CCC(C)C(C)O)C1(C)C (stereo not drawn) [Sandalore®]
- share of cells repeatedly stimulated ([1]; calcium imaging): 80-90%
- calcium signals on repeated stimulation [1]: significant sensitization; also recorded: induced calcium signals
- calcium signals on repeated stimulation ([1]; listed as Sandalore): significant sensitization
- increase of expression of IL-1α relative to the control (0.1% DMSO) ([2]; after 24 hours, 500 μM): approx. 10,000%
- expression of IL-1α ([2]; summary statement): increased
- expression rate of the other interleukins [3]: no increase in the expression rate
- time until Akt kinase was phosphorylated ([4]; 500 μM, 0, 5, 15 and 30 min): ≤ 5 min
- activation of the protein kinase Akt ([4]; summary statement): activated
